From patent US11111243B2, “Azaindole compounds as histone methyltransferase inhibitors” (GLOBAL BLOOD THERAPEUTICS, INC., priority 2017, dated 2021)
Where a name gives a salt, the structure may show the parent alone.

Legend:
[1] = test system: bone marrow CD34+ hematopoietic cells; conditions: human
Procedure: Cryopreserved bone marrow CD34^+ hematopoietic cells obtained from healthy adult human donors were used for all studies. A 21 day ex vivo serum free culture system was utilized that consists of two phases. In culture phase I (culture days 1-7), CD34^+ cells were placed in media containing StemPro-34 complete media (1-glutamine, pen-strep and StemPro-34 nutrient supplement) (Invitrogen, Carlsbad, Calif.) supplemented with 50 ng/mL SCF (HumanZyme, Chicago, Ill.), 50 ng/mL FLT3-Ligand (HumanZyme) and 10 ng/mL IL-3 (HumanZyme). During the first phase of culture (days 0-7), the CD34^+ cells differentiate into progenitor cell populations that include erythroblasts. After 7 days, the cells were transferred to erythropoietin (EPO; Stemcell) supplemented medium (phase 2; culture days 7-21) which is comprised of the following: StemPro-34 complete medium, 4 U/mL EPO, 3 μM mifepristone (Sigma Aldrich, St. Louis, Mo.), 10 μg/mL insulin (Sigma Aldrich), 3 U/mL heparin (Sigma Aldrich) and 0.8 mg/mL holo transferrin (Sigma Aldrich). […]
Expression levels of α-, β- and γ-globin genes are assessed by quantitative PCR analyses. HbF protein levels are assessed by the human Hemoglobin F enzyme-linked immunosorbent assay (ELISA) Quantitation Kit (Bethyl Laboratory, Montgomery, Tex., USA). Percentages of cells expressing HbF are assessed by flow cytometry analysis. […]

G9a = target: T1, G9a (Homo sapiens, UniProt Q96KQ7); assay: G9a AlphaLISA enzymatic activity assay; type: biochemical; conditions: 0.15 nM G9a, 10 uM S-adenosyl-methionine, 100 nM biotinylated histone 3 peptide (1-21), 1 h room temperature
T1 sequence (Q96KQ7 1-1210): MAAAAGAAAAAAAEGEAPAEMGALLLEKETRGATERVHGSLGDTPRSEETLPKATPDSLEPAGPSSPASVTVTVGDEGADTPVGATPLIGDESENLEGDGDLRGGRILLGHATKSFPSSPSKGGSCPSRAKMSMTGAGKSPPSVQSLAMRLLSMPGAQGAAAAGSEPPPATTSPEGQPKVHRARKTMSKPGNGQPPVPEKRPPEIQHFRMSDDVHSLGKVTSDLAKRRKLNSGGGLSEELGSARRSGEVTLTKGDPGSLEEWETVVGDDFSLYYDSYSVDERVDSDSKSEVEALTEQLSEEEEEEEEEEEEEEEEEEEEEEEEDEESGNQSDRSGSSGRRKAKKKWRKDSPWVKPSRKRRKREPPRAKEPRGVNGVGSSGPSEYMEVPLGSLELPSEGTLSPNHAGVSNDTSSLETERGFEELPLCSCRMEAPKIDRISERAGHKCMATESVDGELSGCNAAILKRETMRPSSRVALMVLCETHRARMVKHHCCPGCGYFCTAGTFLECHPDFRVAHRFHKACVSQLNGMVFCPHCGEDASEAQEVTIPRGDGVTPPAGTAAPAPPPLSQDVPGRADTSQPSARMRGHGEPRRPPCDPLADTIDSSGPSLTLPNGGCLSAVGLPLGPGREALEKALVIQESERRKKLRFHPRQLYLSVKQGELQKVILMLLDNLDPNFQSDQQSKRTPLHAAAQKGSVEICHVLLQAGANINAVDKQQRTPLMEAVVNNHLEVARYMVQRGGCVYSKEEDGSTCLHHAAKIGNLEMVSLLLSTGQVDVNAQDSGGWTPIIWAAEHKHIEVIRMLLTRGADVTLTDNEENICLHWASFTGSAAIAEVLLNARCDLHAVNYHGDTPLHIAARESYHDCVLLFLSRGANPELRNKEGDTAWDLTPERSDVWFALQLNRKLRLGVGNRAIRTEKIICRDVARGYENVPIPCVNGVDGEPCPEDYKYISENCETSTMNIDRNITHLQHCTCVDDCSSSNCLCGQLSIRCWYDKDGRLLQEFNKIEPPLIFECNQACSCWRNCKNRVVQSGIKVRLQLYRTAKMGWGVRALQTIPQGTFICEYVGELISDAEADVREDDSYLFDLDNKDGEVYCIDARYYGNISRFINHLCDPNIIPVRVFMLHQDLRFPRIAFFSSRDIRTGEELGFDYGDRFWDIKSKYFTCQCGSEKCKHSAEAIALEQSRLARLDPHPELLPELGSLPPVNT
Summary of the method: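 Reaction of 0.15 nM G9a with 10 uM SAM and 100 nM biotinylated histone H3 (1-21) peptide in 50 mM Tris-HCl pH9, 50 mM NaCl, 0.01% Tween-20, 1 mM DTT, 1 h at room temperature. H3K9me2 detected by AlphaLISA (anti-H3K9me2 acceptor, streptavidin donor beads, 615 nm); IC50 from percent inhibition across dilutions.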

IC50 (G9a) | Compound | Fold Induction [1]
120 nM | COc1cc2c(cc1OCCCN1CCCC1)[nH]c1cc(C3CC3)ncc12 [Compound 101, 1-[3-({3-cyclopropyl-8-methoxy-5H-pyrido[4,3-b]indol-7-yl}oxy)propyl]pyrrolidine hydrochloride] | 
140 nM | CCN(CC)CCCOc1cc2[nH]c3ccnc(C4CC4)c3c2cc1OC [Compound 102, [3-({1-cyclopropyl-8-methoxy-5H-pyrido[4,3-b]indol-7-yl}oxy)propyl]diethylamine hydrochloride] | 

Compound | IC50 (G9a) | Fold Induction [1]
COc1cc2c(cc1OCCCN1CCCC1)[nH]c1ccnc(C3=CCNCC3)c12 [Compound 66, 4-{8-methoxy-7-[3-(pyrrolidin-1-yl)propoxy]-5H-pyrido[4,3-b]indol-1-yl}-1,2,3,6-tetrahydropyridine bishydrochloride] | 5.6 nM | 1.3 fold
